Results: ChEMBL document CHEMBL2203181, “Microwave-assisted synthesis, molecular docking and antitubercular activity of 1,2,3,4-tetrahydropyrimidine-5-carbonitrile derivatives” (2012)

Legend:
Assay type in all cases: functional
Set-up in all cases: scale not given: the % may be the effect or the level left
[1] = system: Mycobacterium tuberculosis; test: Antitubercular activity against Mycobacterium tuberculosis H37Rv assessed as reduction in RLU at 2 ug/mL after 72 hrs by luciferase reporter phage assay
[2] = system: Mycobacterium tuberculosis; test: Antitubercular activity against Mycobacterium tuberculosis H37Rv assessed as reduction in RLU at 100 ug/mL after 72 hrs by luciferase reporter phage assay
[3] = system: Mycobacterium tuberculosis; test: Antitubercular activity against Mycobacterium tuberculosis H37Rv assessed as reduction in RLU at 500 ug/mL after 72 hrs by luciferase reporter phage assay
[4] = system: Mycobacterium tuberculosis; test: Antitubercular activity against Mycobacterium tuberculosis H37Rv assessed as reduction in RLU at 0.5 ug/mL after 72 hrs by luciferase reporter phage assay

Structure (SMILES) | Activity [1] | Activity [2] | Activity [3] | Activity [4]
CO[C@H]1/C=C/O[C@@]2(C)Oc3c(C)c(O)c4c(O)c(c(/C=N/N5CCN(C)CC5)c(O)c4c3C2=O)NC(=O)/C(C)=C\C=C\[C@H](C)[C@H](O)[C@@H](C)[C@@H](O)[C@@H](C)[C@H](OC(C)=O)[C@@H]1C [RIFAMPIN] | 82.58% |  |  | 
N#Cc1c(-c2ccc(Cl)cc2)[nH]c(=S)[nH]c1=O |  | 46.21% | 65.23% | 
N#Cc1c(-c2ccc(Br)cc2)[nH]c(=S)[nH]c1=O |  | 75.73% | 82.04% | 
NNC(=O)c1ccncc1 [ISONIAZID] |  |  |  | 98.42%
N#Cc1c(-c2cccc(Cl)c2)[nH]c(=O)[nH]c1=O |  | 54.28% | 61.02% | 
N#Cc1c(-c2ccc(F)cc2)[nH]c(=O)[nH]c1=O |  | 46.49% | 44.2% | 
COc1ccc(-c2[nH]c(=O)[nH]c(=O)c2C#N)cc1O |  | 33.4% | 48.72% | 
